Type in all cases: functional
The test system of one experiment is MDA-MB-231. Nature of the experiment: Cytotoxicity against human MDA-MB-231 cells by SRB assay.
Another experiment deals with A549. Nature of the experiment: Cytotoxicity against human A549 cells by SRB assay.
The test system of the next experiment is HT-29. Description: Cytotoxicity against human HT-29 cells by SRB assay.

For the molecule `COC(=O)C(C)/C=C/[C@@H](C)[C@H]1CC[C@H]2[C@@H]3CCC4=CC(=O)C=C[C@]4(C)[C@H]3CC[C@]12C` (stereo partly drawn), the values for the GI50 in the experiment on MDA-MB-231, in the experiment on A549 and in the experiment on HT-29 were 22.4 µM, 21.4 µM and 20.2 µM, respectively.

Consider `COC(=O)/C(C)=C/CC[C@@H](C)[C@H]1CC[C@H]2[C@@H]3CCC4=CC(=O)C=C[C@]4(C)[C@H]3CC[C@]12C`, for which the GI50 in the experiment on MDA-MB-231 came to 21.2 µM; in the experiment with A549, 16.5 µM; with HT-29, 15.3 µM.

`COC(=O)/C(C)=C/C[C@@H](OC(C)=O)[C@@H](C)[C@H]1CC[C@H]2[C@@H]3CCC4=CC(=O)C=C[C@]4(C)[C@H]3CC[C@]12C` showed a GI50 with MDA-MB-231 of 18.4 µM. This lies in the double-digit micromolar range.

Turning to `C=C(CC[C@](C)(O)[C@H]1CC[C@H]2[C@@H]3CCC4=CC(=O)C=C[C@]4(C)[C@H]3CC[C@@]21C)C(C)C`, it took 23.4 µM to inhibit growth in the experiment with A549 by half (GI50).

These data come from ChEMBL document CHEMBL1141759, “Steroids from the Antarctic octocoral Anthomastus bathyproctus” (2005).
